Results as given in publication PMC11477298, “Small Molecules Inducing Autophagic Degradation of Expanded Polyglutamine Protein through Interaction with Both Mutant ATXN3 and LC3” (International Journal of Molecular Sciences, 2024).

Experiments:
Type in all cases: cell-based, human
[1] = MTT compound cytotoxicity assay; settings: human, ATXN3-Q75-GFP SH-SY5Y cells, 0.1–100 μM compound, viability analyzed the next day, n = 3
Method: For the compound cytotoxicity assay, ATXN3-Q75-GFP SY5Y cells (2 × 10^4) were plated into 96-well dishes, grown for 20 h, and treated with 0.1–100 μM test compounds. After 1 day, 3-(4,5-dimethylthiazol-2-yl)-2,5-diphenyltetrazolium bromide (MTT, 5 mg/mL) (Sigma-Aldrich, St. Louis, MO, USA) was added to the cells and incubated for 3 h at 37 °C. Lysis buffer (10% Triton X-100, 0.1 N HCl, 18% isopropanol) was then added to dissolve the insoluble formazan crystals. The absorbance of the purple-colored solution was measured at optical density (OD) 570 nm by using a FLx800 fluorescence microplate spectrophotometer (Bio-Tek, Winooski, VT, USA). The half-maximal inhibitory concentration (IC50) was calculated through the construction of a dose–response curve.

[2] = test system: ATXN3-Q75-GFP SH-SY5Y cells; experiment: High-content neurite outgrowth assay; settings: compound 10 µM, range over the four named compounds; for Neurite branch: untreated 1.16; for Neurite process: untreated 2.41; for Neurite length: untreated 23.2 µm
Method: ATXN3-Q75-GFP SH-SY5Y cells (5 × 10^4/well) were plated onto 24-well plates, with retinoic acid addition (10 µM; Sigma-Aldrich) on day 1 to initiate neuronal differentiation. On day 2, the cells were pretreated with disaccharide trehalose (10 mM, as a positive control) or the studied compounds (10 μM) for 8 h, followed by the addition of doxycycline (5 μg/mL, Sigma-Aldrich) to induce ATXN3-Q75-GFP expression. The cells were kept in the medium containing retinoic acid, the test compound, and doxycycline for 6 days, with the culture medium changed on day 5. ATXN3-Q75 aggregation and neurite outgrowth assays were performed on day 8 using a high-content imaging system (ImageXpress Micro Confocal; Molecular Devices).
For the aggregation assay, cells were stained with Hoechst 33342 (0.1 µg/mL; Sigma-Aldrich) at 37 °C for 30 min. Images of the cells were automatically obtained at excitation/emission wavelengths of 482/536 nm (FITC [fluorescein isothiocyanate] filter) for enhanced GFP and 377/447 nm (DAPI [4′,6-diamidino-2-phenylindole] filter) for nucleus counting. ATXN3-Q75 aggregation was determined by Transfluor technology based on GFP fluorescence intensity. For the neurite outgrowth assay, cells were fixed with 4% paraformaldehyde for 30 min, permeabilized with 0.1% Triton X-100 for 10 min, and blocked by non-specific binding with 3% bovine serum albumin for 20 min. The primary TUBB3 (neuronal class III β-tubulin) antibody (1:1000; BioLegend #802001, San Diego, CA, USA) was used to stain cells at 4 °C overnight, followed by Alexa Fluor 555-donkey anti-rabbit IgG secondary antibody (1:1000; Invitrogen #A-31572) staining for 2 h at room temperature. Nuclei were detected using DAPI (0.1 μg/mL; Sigma-Aldrich). Cell images were obtained at excitation/emission wavelengths of 531/593 nm (TRITC [tetramethylrhodamine] filter) for stained neurites and 377/447 nm (DAPI filter) for nuclei. To quantify neurite outgrowth, microscopic images were segmented with multi-colored masks to assign each outgrowth to a cell body for quantification. Neurite total length (μm) and numbers of process (primary neurites originating from neuronal cell body) and branch (secondary neurites extended from primary neurites) were analyzed (Neurite Outgrowth Application Module; Molecular Devices). In general, […] in each biological replicate were analyzed.

[3] = test system: ATXN3-Q75-GFP SH-SY5Y cells; experiment: Confocal microscopy of LC3 puncta, ATXN3-Q75 aggregates and P62 colocalization; settings: compound 10 μM, range over trehalose and the four compounds; for Colocalization coefficient of ATXN3-Q75-GFP with LC3 puncta: untreated 0.014; for Colocalization coefficient of LC3 with P62: untreated 0.21; for LC3 puncta per cell: untreated induced 2.7
Method: ATXN3-Q75-GFP SY5Y cells were seeded onto 12-well plates (1 × 10^5/well) containing poly-L-lysine-coated coverslip on day 1; treated with retinoic acid, test compounds, and doxycycline on day 2; and fixed, permeabilized, and blocked on day 8, as described. The primary anti-LC3 antibody (1:1000; Cell Signaling #83506, Danvers, MA, USA) or anti-P62 antibody (1:1500; Cell Signaling #5114) was used to stain cells at 4 °C overnight. After washing with PBS containing 0.1% Tween 20 (PBST), cells were incubated for 2 h at room temperature with Cy5-conjugated (1:1000, Jackson ImmunoResearch 715-175-150) or Alexa Fluor 555-conjugated (1:500; Invitrogen #A-31572) secondary antibody, and washed three times with PBST. Nuclei were detected using DAPI (0.1 μg/mL; Sigma-Aldrich). The stained cells on coverslips were mounted onto microscope slides with Vectashield antifade mounting medium (Vector Laboratories, Newark, CA, USA) and examined using a Zeiss LSM880 confocal microscope (Carl Zeiss AG, Oberkochen, Baden-Württemberg, Germany). Cell images were acquired at excitation/emission wavelengths of 649/666 nm, 482/536 nm, 555/582 nm, and 385/461 nm for stained LC3 puncta, aggregates, P62, and nuclei, respectively. For colocalization, 300 cells from three independent experiments were analyzed and quantified for the proportion of pixels that LC3 (red) colocalized with P62 (yellow) using Mander’s overlap coefficient (MOC) in ZEN software version 2.1 (Carl Zeiss AG).

[4] = test system: ATXN3-Q75-GFP SH-SY5Y cells; experiment: Western blot of LC3-II:LC3-I ratio; settings: compound 10 μM; uninduced = 100%, untreated induced 76%; range over trehalose and the four compounds
Method: For the immunoblotting analysis, ATXN3-Q75-GFP SH-SY5Y cells were seeded in 6-well plates (3 × 10^5/well) and treated with retinoic acid, test compounds, and doxycycline, as described. On day 8, cells were collected and lysed in buffer (50 mM Tris-HCl pH 8.0, 150 mM NaCl, 2 mM EDTA pH 8.0, 0.1% SDS, 0.5% sodium deoxycholate, 1% NP-40) containing the protease inhibitor cocktail (Sigma-Aldrich). After sonication, the lysates were centrifuged (12,000× g for 10 min at 4 °C) and protein concentrations determined (Bradford protein assay; Bio-Rad, Hercules, CA, USA). Aliquots of protein (20 µg) were separated by electrophoresis using 12% SDS-polyacrylamide gel followed by transfer to a polyvinylidene fluoride membrane. After being blocked with 5% skim milk at 4 °C overnight, the membrane was stained with LC3 (1:1000; Medical & Biological Laboratories Co. #PM036, Tokyo, Japan) or GAPDH (glyceraldehyde 3-phosphate dehydrogenase) (1:1000, MDBio #30000002, Taipei, Taiwan) primary antibody at 4 °C overnight. The immune complexes were detected using HRP-conjugated goat anti-rabbit IgG antibody and chemiluminescent substrate, as described.

SMILES	IC50 at 1 day [1] [µM]	Neurite branch [2]	Neurite process [2]	Neurite length [2]	Colocalization coefficient of ATXN3-Q75-GFP with LC3 puncta [3]	Colocalization coefficient of LC3 with P62 [3]	LC3 puncta per cell [3]	Relative LC3-II:LC3-I ratio [4]
O=C(c1ccccc1)c1cc2c(O)cccc2oc1=O [LM-031]	> 100	1.34–1.37	2.55–2.57	26.1–26.9 µm	0.025–0.030	0.26–0.29	4.6–6.7	102–124%
CC(=O)/C(=C\c1ccccc1[N+](=O)[O-])Cc1c[nH]c2ccccc12 [NC009-1]	111	1.34–1.37	2.55–2.57	26.1–26.9 µm	0.025–0.030	0.26–0.29	4.6–6.7	102–124%
CC(=O)/C(=C\c1ccccc1[N+](=O)[O-])Cc1c(C)[nH]c2ccccc12 [NC009-2]	124	1.34–1.37	2.55–2.57	26.1–26.9 µm	0.025–0.030	0.26–0.29	4.6–6.7	102–124%
